This note sets out measurements from US20230190707A1, “COMPOSITIONS AND METHODS FOR ENHANCING CANCER IMMUNOTHERAPY” (FRED HUTCHINSON CANCER CENTER, priority 2020, published 2023).

pIC50: −log10 of the molar value. Like-named read-outs stand apart in the source and are kept apart here.

For series [1], the system named is 501-MEL, A375, and SK-MEL-239. Nature of the series: RNA-seq splicing analysis, human tumor cell lines. It counts as cell-based. The conditions noted are these: identical treatment. The protocol:
(§1) Bulk lung and colon were homogenized using a Qiagen TissueRuptor. For all tissues and cell types, RNA was extracted using an RNeasy kit (Qiagen, Frederick, Md.) and quantified using a NanoDrop 8000 (ThermoFisher Scientific). A minimum of 500 ng of high-quality RNA (as determined by Agilent Bioanalyzer) per sample or replicate was used for library preparation. Poly(A)-selected, strand-specific (dUTP method) Illumina libraries were prepared with a modified TruSeq protocol and sequenced on the Illumina HiSeq 2000 (˜100M 2×101 bp paired-end reads per sample or replicate).
RNA-seq analysis was performed as previously described (Dvinge, H., et al. (2014). Sample processing obscures cancer-specific alterations in leukemic transcriptomes. Proc Natl Acad Sci USA 111, 16802-16807, incorporated herein by reference in its entirety). […] Aligned reads from these two mapping steps were merged to generate final BAM files for all subsequent analyses.
MISO v2.0 was used to quantify all expression of isoforms arising from exon skipping (cassette exons), competing 5′ splice site selection, competing 3′ splice site selection, and annotated intron retention. […]

For series [2], the system named is CD5^+ splenic T cells. Nature of the series: Anti-CD3/CD28 T cell activation and proliferation (CFSE). Format: cell-based, mouse. How it is done: Cell lines were grown with half-log10 concentrations of the indicated drug in 4 to 8 technical replicates under standard conditions until the control condition (DMSO or vehicle) was confluent by microscopy. For tumor cell lines, viable cells were quantified via the CellTiter-Glo® assay (Promega Cat. G7573) as per manufacturer instructions. For the ex vivo proliferation of T cells, viable cells were instead quantified via flow cytometry using counting beads. The percentage or number of viable cells with drug treatment was calculated relative to DMSO control (as 100%). […] For absolute cell number, Annexin V+, CD25+, and PD1+ flow cytometry data presented in Figure S4, dose-response models and IC50 values were computed using the R language's dre package (Ritz, C., et al. (2015). Dose-Response Analysis Using R. PLoS One 10, e0146021).
(§2) Plates were coated with 10 μg/mL anti-CD3 (clone 145-2C11, Biolegend Cat. 100302) and 2 μg/mL anti-CD28 (clone 37.51, Biolegend Cat. 102102) in PBS overnight at 4° C. and washed twice with cold PBS prior to use. CFSE-labeled CD5-selected splenic T cells from naïve C57BL/6J mice were obtained identically as for adoptive cell transfer, and 5×10^4 cells incubated with coated plates in the presence of splicing inhibitor drugs at the indicated concentrations, followed by analysis by standard flow cytometry on day 3. Of note, for RNA-seq analyses, T cells were not labeled with CFSE, and underwent activation for 4 days (96 hours) in the presence of various splicing modulator drugs to harmonize experimental conditions with RNA-seq analyses of tumors treated with splicing inhibitors. For the RNA-seq experiments only, T cells in all conditions were also incubated with IL-2 at 50 U/mL to maximize viability and yield.

Series [3] relates to OT-1 T cells. Put plainly: LAMP-1 T cell degranulation assay. It counts as cell-based, mouse. The conditions noted are these: higher doses. How it is done:
OT-1 cells were generated as described for the cytotoxicity assay and incubated with ovalbumin-expressing tumor cell lines (pre-treated overnight with IFNγ 100 U/mL to upregulate cell-surface MHC I) in the presence of DMSO or varying concentrations of splicing modulator drugs as indicated, in the presence of LAMP-1 antibody for 5-6 hours under standard incubator conditions. After the first hour of incubation, BD GolgiPlug™ (brefeldin A) and BD GolgiStop™ (monensin) was added at […] respectively into cells. At the end of incubation, cells were washed and stained for cell surface markers prior to standard flow cytometry.

Series [4] concerns bone marrow hematopoietic stem and progenitor cells. Nature of the series: M3434 methylcellulose colony assay. Format: cell-based, mouse. The protocol: 25,000 red blood cell-lysed bone marrow mononuclear cells from C57BL/6 mice were plated in duplicates or triplicates in each well of a non-tissue-culture treated 6 well plate with M3434 methylcellulose media in the presence of splicing drugs at the indicated concentrations as per manufacturer's instructions (StemCell Technologies, Cat. 03434) and incubated for seven days prior to quantification of colonies by manual microscopy.

Series [5] has as its system OT-1 transgenic T cells against ovalbumin (OVA)-expressing B16-F10 cells. Nature of the series: OT-1 cytotoxicity assay. Format: cell-based, mouse. Conditions: 18 hours; minimal impairment at doses less than 4 μM. How it is done:
Bulk splenocytes from OT-1 animals were cultured for three days with 100 U/mL murine IL-2 and 100 μg/mL SIINFEKL (SEQ ID NO:1) peptide to activate CD8^+ T cells. Cultures were subsequently washed thoroughly to remove ova peptide and rested for at least 24 hours prior to use. OT-1 cells were passaged in T cell media with 50 U/mL IL-2 for no more than seven days from animal sacrifice prior to use. For the cytotoxicity assay, tumor cells alone or OT-1+tumor cells (1:1 ratio) were incubated in T cell media for 18 hours under standard conditions with the indicated concentrations of splicing drugs and analyzed by flow cytometry to quantify killing. OT-1 cells and other hematopoietic cells were excluded with the use of CD45, CD3, and CD8 staining. Tumor cell viability was measured using DAPI.

Series [6] deals with T cells stimulated with anti-CD3 and CD28 antibodies. Put plainly: Gene expression program of activated T cells (RNA-seq). It counts as cell-based, mouse. The conditions noted are these: ex vivo anti-CD3 and CD28 stimulation in presence of drug. How it is done: as §2, §1

In the case of `NS(=O)(=O)c1ccc(S(=O)(=O)Nc2cccc3c(Cl)c[nH]c23)cc1` [indisulam], in series [1], the “splicing changes in human cancer cells” value is “stereotyped and pervasive splicing changes”. Besides, in series [2], the “T cell apoptosis and activation markers” value is “much milder effects”. In addition, the pIC50 in series [2] (Mus musculus, T-cell, 72 h, three days of continuous drug exposure, read-out: IC50 values, T cell proliferation following stimulation) is 5.00 to 6.00. Further, in series [3], the “ability of OT-1 T cells to degranulate intracellular cytolytic molecules” value is “did not inhibit”. Moreover, in series [4], the “hematopoiesis (colony formation)” value is reported as “intact”. In addition, the “in vitro cytotoxicity of primed OT-1 T cells against OVA-expressing B16-F10 cells” value in series [5] was “minimally impaired”. Further, the “genes normally upregulated upon T cell activation” value in series [6] is recorded as “much milder changes”.
On to `CC(C)Oc1ccc(-c2c[nH]cc2CN(C)CCN)cc1` [MS-023], for which, in series [1], the “splicing changes in human cancer cells” value was “stereotyped and pervasive splicing changes”. Moreover, the “T cell apoptosis and activation markers” value in series [2] is given as “much milder effects”. In series [3], the “ability of OT-1 T cells to degranulate intracellular cytolytic molecules” value is given as “did not inhibit”. In series [4] (micromolar doses, pladienolide B at nanomolar concentrations), the “hematopoiesis (colony formation)” value is reported as “intact”. For the same molecule, the “in vitro cytotoxicity of primed OT-1 T cells against OVA-expressing B16-F10 cells” value in series [5] was “minimally impaired”. Moreover, the “genes normally upregulated upon T cell activation” value in series [6] is “much milder changes”.
